Consider four compounds from PMC3619390 (Journal of medicinal chemistry, 2012).

Series [1] concerns human cells. Particulars: cited from earlier work.
Series [2] deals with T1, human RAD51 protein (Homo sapiens, UniProt Q06609).
T1 sequence (Q06609 1-339): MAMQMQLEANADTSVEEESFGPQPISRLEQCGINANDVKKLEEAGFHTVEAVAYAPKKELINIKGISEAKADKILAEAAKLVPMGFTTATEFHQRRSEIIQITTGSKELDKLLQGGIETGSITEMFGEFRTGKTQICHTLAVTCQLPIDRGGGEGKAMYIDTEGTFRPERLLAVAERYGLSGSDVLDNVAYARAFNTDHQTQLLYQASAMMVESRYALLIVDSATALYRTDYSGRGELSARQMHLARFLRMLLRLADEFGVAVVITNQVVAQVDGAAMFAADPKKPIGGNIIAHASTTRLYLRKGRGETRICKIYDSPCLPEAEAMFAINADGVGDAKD
Nature of the series: FP-based DNA binding assay. The conditions noted are these: compound 59 μM, 0.23 μM RAD51 (Figure 2B).

For series [3], the system named is single-strand annealing (SSA) in HEK293 cells. Briefly: SSA repair efficiency, SA-GFP reporter. The format is cell-based, human. Particulars: 24 hours.
A short description of series [4]: Glutathione stability / reactivity experiment. The format is physicochemical. Particulars: 37 °C, DMSO, five-fold molar excess of glutathione, HPLC, up to 24 hours.
The subject of series [5] is HR repair in HEK293 cells. Nature of the series: HR repair efficiency, DR-GFP reporter. The format is cell-based, human. Particulars: 24 hours.
A further series concerns HEK293 cells. Nature of the series: Sensitization of cells to MMC. The series is classed as cell-based, human. Particulars: HEK293, varying MMC 24 hours then compound 24 hours (Figure 4).
The subject of series [6] is human cells. Particulars: requires long (>10 hour) pre-incubation of cells with compound; cited from earlier work.
The target in series [7] is T1, human RAD51 protein. Briefly: DNA binding competition. The conditions noted are these: 10 μM compound prior to washing (Figure 2C).
[8] abbreviates: 60 μM, compared with 1 at 20 μM.

Regarding `C[C@@]12CCC(=O)c3coc(c31)C(=O)c1cc3c(cc12)C(=O)C=CC3=O` [halenaquinone], the “sensitization of cells to ionizing radiation” value in the series on human cells [1] is reported as “not capable of sensitizing cells to ionizing radiation”.

On to `COc1ccc(C2=C(N3CCOCC3)C(=O)N(c3ccc(Cl)c(Cl)c3)C2=O)cc1` [7a, 1-(3,4-dichlorophenyl)-3-(4-methoxyphenyl)-4-morpholino-1H-pyrrole-2,5-dione], for which the “time dependence of inhibition of RAD51 DNA binding activity” value at human RAD51 protein [2] is “did not observe any time-dependent increase”. The “effect on SSA efficiency” value in series [3] (setting [8]) is recorded as “very similar effects”. Further, the reactivity with glutathione entry in series [4] is recorded as “no reactivity”. Moreover, the “effect on HR efficiency” value in series [5] (setting [8]) is given as “very similar effects”. In addition, the “sensitization of cells to MMC” value in the series with HEK293 cells is “significant sensitization of cells”.

Consider `O=c1c2ccccc2nc(/C=C/c2cccnc2)n1Cc1ccccc1` [B02], for which the “sensitization of cells to cross-linking chemotherapeutic drugs” value with human cells [6] is “does successfully sensitize cells”.

Turning to `O=C1C(Cl)=C(N2CCOCC2)C(=O)N1c1ccc(Cl)c(Cl)c1` [compound 1], on human RAD51 protein [7], the “RAD51 DNA binding activity after compound treatment on beads and washing” value is given as “significantly inactivated”. Also, the “time dependence of inhibition of RAD51 DNA binding activity” value at human RAD51 protein [2] was “time-dependent”. For the same compound, the “effect on SSA efficiency” value in series [3] (20 μM) is reported as “stimulation of SSA”. The “effect on HR efficiency” value in series [5] (20 μM) is reported as “inhibition of HR”. The “sensitization of cells to MMC” value in the series with HEK293 cells is reported as “significant sensitization of cells”.
